According to patent publication US9029386B2, “Pyridine derivatives useful as kinase inhibitors” (YM Biosciences Australia Pty Ltd, priority 2006, dated 2015):
pIC50: −log10 of the molar value.

Assays:
[1] = target: T1, kinase domain of human CSF1-R (Homo sapiens, UniProt P07333); experiment: Alphascreen protein tyrosine kinase assay, CSF-1R; type: biochemical
T1 construct: from codon I553 to Q961; made in house; host or cells: Sf9 insect cells (baculovirus)
T1 sequence (P07333 553-961): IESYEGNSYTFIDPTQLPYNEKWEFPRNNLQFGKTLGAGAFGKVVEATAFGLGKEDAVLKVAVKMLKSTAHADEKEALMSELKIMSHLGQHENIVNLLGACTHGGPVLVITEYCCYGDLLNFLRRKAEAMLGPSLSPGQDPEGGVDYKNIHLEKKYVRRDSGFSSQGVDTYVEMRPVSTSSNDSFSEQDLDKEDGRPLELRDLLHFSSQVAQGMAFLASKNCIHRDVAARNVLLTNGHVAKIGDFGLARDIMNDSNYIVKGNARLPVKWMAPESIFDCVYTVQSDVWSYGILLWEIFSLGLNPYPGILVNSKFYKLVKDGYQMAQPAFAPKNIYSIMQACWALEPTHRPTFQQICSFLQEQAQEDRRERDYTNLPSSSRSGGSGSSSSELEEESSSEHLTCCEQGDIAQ
Experimental: (§1) For screening purposes, compounds were diluted in 96 well plates at a concentration of 20 μM. Plates were warmed at 37° C. for 30 minutes before assay.
The kinase domain of human CSF1-R from codon I553 to Q961 was cloned into the pDEST-20 expression vector (Invitrogen). The CSF1-R plasmid was then transformed into competent DH10Bac cells (Gibco), and the recombinant baculovirus produced prepared for transfection into Sf9 insect cells.
(§2) Baculovirus preparations from each of construct were infected into five liters of SF9 cells (Invitrogen) grown in SF-900 medium (Invitrogen) to a cell density of approximately 1−2×10^6 cells/ml. […] Cells were harvested and lysed. Tyrosine kinase domains were purified by affinity chromatography on a glutathione-agarose column (Scientifix Pty. Ltd. catalog #: GSH-200).
(§3) Kinase assays were performed in 384 well Optiplates (Packard) using an Alphascreen Protein Tyrosine Kinase kit. […] Alphascreen phosphotyrosine acceptor beads followed by streptavidin donor beads were added under subdued light. The Alphascreen plates were read on a Packard Fusion Alpha. Inhibitors were added to the assays thirty minutes prior to the addition of ATP. Inhibitors were added in aqueous DMSO, with DMSO concentrations never exceeding 1%.

[2] = target: T2, kinase domain of human c-kit (Homo sapiens, UniProt P10721); experiment: Alphascreen protein tyrosine kinase assay, c-KIT; type: biochemical
T2 construct: from codon M552 to end; made in house; host or cells: Sf9 insect cells (baculovirus)
Experimental: as §1
The kinase domain of human c-kit from codon M552 to end was cloned into the pDEST-20 expression vector (Invitrogen). The c-kit plasmid was then transformed into competent DH10Bac cells (Gibco), and the recombinant baculovirus produced prepared for transfection into Sf9 insect cells.
as §2, §3

FLT-3 tyrosine kinase = target: T3, FLT-3 tyrosine kinase (Homo sapiens, UniProt P36888); experiment: Alphascreen protein tyrosine kinase assay, FLT-3; type: biochemical; details: read-out: Flt3
T3 construct: purchased Upstate Cell Signalling Solutions, CA, USA 14-500
T3 sequence (P36888 27-993): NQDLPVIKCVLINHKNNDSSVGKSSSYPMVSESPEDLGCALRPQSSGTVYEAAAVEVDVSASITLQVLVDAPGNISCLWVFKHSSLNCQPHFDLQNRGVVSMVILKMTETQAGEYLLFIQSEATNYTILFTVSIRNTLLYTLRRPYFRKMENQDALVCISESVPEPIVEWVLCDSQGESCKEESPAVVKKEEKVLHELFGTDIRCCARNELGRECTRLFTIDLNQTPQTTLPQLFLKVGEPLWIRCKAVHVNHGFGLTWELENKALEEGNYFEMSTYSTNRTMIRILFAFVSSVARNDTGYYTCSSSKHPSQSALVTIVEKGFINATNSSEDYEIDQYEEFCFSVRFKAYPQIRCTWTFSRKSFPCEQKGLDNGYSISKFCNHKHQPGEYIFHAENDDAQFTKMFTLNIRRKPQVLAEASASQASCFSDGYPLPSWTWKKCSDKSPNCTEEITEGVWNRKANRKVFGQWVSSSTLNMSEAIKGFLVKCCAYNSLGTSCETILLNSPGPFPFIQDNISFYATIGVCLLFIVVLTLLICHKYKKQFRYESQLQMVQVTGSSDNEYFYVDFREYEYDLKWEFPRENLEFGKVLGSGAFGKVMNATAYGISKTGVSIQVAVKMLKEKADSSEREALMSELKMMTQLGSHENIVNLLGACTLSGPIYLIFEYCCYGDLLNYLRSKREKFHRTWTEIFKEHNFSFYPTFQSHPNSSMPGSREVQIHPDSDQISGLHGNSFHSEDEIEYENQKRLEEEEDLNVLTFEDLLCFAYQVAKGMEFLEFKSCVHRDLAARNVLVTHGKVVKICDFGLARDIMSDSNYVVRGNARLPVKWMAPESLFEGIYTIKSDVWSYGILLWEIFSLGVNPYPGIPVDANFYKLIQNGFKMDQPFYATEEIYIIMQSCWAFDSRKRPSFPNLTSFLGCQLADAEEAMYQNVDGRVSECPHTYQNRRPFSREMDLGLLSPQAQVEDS

PDGFR β tyrosine kinase = target: T4, PDGFR β tyrosine kinase (Homo sapiens, UniProt P09619); experiment: Alphascreen protein tyrosine kinase assay, PDGFRβ; type: biochemical
T4 construct: purchased Upstate Cell Signalling Solutions, CA, USA 14-463

KDR protein kinase = target: T5, KDR protein kinase (Homo sapiens, UniProt P35968); experiment: Alphascreen protein tyrosine kinase assay, KDR; type: biochemical
T5 construct: purchased Millipore 14-630M
Experimental: as §1
FLT-3 and PDGFR β tyrosine kinase enzymes were purchased from Upstate Cell Signalling Solutions, CA, USA (flt-3 catalog #: 14-500 and PDGFR β catalog #: 14-463). KDR protein kinase enzyme was purchased from Millipore (catalogue #14-630M).
Kinase assays were performed in 384 well Optiplates (Packard) using an Alphascreen Protein Tyrosine Kinase kit. […] The biotinylated peptides Biotin-[…]-NH2 for c-KIT and PDGFRβ and Biotin-[…]-NH2 for CSF1-R and FLT-3 (final concentration 0.1-3 μM) were used as substrates. Alphascreen phosphotyrosine acceptor beads followed by streptavidin donor beads were added under subdued light. The Alphascreen plates were read on a Packard Fusion Alpha. Inhibitors were added to the assays thirty minutes prior to the addition of ATP. Inhibitors were added in aqueous DMSO, with DMSO concentrations never exceeding 1%.

mNFS-60 = experiment: Cellular assay (Alamar Blue), mNFS-60 with human M-CSF; type: cell-based; details: human M-CSF at 20 ng/ml, 72 hr
Experimental: (§4) Cells for the assays were prepared by harvesting cells from culture, and then diluting them in the appropriate growth medium to between 40,000 cell/mL and 600,000 cell/mL, depending on the cell line.
(§5) The compounds to be tested were added (104, 10× final concentration) to a flat bottomed 96-well plate. The cellular suspension (80 μL per well) was added, and one hour later the growth factor was added (human M-CSF at 20 ng/ml for mNFS-60, mouse IL-3 at 5 ng/ml for Baf3-WT). The plate was then incubated for 72 hr at 37° C., 5% CO2. Alamar Blue (10^4 per well) was added and the plates returned to the incubator for a further 4-8 hours.
(§6) The plates were then read using a fluorescence plate reader at excitation 544 nm and emission 590 nm.

Baf3-WT = experiment: Cellular assay (Alamar Blue), Baf3-WT with mouse IL-3; type: cell-based; details: mouse IL-3 at 5 ng/ml, 72 hr
Experimental: as §4, §5, §6

T2 sequence (P10721 552-976 limits assumed): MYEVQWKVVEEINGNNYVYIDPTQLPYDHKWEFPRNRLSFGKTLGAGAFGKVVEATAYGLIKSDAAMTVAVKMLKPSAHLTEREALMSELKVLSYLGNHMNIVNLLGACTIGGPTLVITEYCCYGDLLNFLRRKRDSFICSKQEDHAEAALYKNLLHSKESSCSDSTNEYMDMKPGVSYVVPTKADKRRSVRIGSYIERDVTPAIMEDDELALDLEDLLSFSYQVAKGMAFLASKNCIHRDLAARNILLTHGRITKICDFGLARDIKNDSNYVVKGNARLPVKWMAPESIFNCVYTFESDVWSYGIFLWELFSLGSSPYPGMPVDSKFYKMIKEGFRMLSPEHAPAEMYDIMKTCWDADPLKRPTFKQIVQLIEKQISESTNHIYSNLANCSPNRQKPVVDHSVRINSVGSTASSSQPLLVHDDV
T4 sequence (P09619 33-1106): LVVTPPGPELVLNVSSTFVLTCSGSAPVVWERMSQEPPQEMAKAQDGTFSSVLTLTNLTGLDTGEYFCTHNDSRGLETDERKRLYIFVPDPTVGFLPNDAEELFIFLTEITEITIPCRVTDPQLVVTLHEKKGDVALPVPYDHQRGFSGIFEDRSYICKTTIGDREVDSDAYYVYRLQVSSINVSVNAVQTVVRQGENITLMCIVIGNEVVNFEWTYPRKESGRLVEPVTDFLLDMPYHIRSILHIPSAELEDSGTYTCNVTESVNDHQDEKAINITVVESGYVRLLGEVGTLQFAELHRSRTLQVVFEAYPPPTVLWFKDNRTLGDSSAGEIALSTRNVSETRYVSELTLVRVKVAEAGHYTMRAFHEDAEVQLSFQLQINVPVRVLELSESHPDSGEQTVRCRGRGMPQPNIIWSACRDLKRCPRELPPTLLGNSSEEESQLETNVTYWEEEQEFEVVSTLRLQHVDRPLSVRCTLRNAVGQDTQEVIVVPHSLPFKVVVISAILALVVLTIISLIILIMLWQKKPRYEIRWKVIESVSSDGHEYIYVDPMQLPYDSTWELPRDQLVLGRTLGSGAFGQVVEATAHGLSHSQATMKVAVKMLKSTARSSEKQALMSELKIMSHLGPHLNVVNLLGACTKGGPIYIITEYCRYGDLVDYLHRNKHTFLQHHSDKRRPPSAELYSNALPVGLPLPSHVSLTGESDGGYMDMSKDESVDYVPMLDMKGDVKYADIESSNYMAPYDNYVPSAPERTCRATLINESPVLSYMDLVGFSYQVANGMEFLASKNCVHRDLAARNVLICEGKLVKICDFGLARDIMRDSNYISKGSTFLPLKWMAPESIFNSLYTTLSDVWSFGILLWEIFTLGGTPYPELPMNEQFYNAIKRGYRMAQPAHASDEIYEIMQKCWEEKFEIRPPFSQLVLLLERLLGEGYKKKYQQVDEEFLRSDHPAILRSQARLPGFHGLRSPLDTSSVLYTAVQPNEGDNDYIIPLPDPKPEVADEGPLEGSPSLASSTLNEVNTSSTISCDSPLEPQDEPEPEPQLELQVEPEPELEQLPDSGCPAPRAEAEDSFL
T5 sequence (P35968 20-1356): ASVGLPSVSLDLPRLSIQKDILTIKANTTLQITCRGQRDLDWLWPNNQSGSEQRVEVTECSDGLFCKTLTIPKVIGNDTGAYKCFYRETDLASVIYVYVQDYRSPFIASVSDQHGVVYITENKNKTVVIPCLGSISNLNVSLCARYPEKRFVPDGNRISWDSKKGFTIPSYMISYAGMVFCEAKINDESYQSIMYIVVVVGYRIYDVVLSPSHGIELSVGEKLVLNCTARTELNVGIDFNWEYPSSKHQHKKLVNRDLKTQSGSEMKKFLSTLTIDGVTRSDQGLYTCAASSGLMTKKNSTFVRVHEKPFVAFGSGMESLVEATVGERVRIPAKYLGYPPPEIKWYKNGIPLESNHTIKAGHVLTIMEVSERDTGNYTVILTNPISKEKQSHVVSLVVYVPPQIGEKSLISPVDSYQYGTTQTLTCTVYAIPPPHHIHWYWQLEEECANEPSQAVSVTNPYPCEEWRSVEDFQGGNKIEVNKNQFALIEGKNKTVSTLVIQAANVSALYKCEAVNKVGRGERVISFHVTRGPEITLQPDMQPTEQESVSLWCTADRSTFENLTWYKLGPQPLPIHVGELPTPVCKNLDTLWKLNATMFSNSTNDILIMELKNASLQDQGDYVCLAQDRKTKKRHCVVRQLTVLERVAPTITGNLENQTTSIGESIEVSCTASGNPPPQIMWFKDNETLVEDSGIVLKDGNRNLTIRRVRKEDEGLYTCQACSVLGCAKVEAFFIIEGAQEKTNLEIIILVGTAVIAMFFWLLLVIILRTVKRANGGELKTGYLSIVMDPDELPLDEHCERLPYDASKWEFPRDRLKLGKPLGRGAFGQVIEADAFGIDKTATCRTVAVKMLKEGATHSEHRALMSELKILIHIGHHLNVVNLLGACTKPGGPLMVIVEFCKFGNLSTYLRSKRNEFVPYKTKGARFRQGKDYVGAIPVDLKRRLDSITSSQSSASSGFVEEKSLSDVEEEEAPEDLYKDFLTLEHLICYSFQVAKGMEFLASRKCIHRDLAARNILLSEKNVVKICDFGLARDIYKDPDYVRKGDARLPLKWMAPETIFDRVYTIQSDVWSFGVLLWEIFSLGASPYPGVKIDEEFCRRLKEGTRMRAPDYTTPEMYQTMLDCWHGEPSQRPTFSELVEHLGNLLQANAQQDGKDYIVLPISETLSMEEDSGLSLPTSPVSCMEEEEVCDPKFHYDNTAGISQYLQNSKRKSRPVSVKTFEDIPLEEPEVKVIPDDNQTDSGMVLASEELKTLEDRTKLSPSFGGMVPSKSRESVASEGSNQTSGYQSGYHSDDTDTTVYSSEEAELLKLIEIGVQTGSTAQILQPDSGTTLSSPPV

| pIC50 [1] | pIC50 [2] | pIC50 (FLT-3 tyrosine kinase) | pIC50 (PDGFR β tyrosine kinase) | pIC50 (KDR protein kinase) | pIC50 (Baf3-WT) | SMILES | pIC50 (mNFS-60) |
| --- | --- | --- | --- | --- | --- | --- | --- |
| > 7.00 | > 7.00 | > 5.00 | > 7.00 | – | – | COc1cc(-c2cncc(N[C@@H](C)c3cccc(NC(=O)c4cncc(C)c4)c3)n2)ccc1N [Compound 29] | – |
| > 7.00 | > 7.00 | > 5.00 | > 7.00 | > 7.00 | < 5.00 | COc1cccc(-c2cncc(N[C@@H](C)c3cccc(NC(=O)c4cncc(C)c4)c3)n2)c1 [Compound 24] | > 6.70 |
| > 7.00 | > 7.00 | > 5.00 | > 6.00 | – | – | COc1cc(-c2cncc(N[C@@H](C)c3cccc(NC(=O)c4cccc(C)c4)c3)n2)ccc1O [Compound 76] | – |
| – | > 7.00 | < 5.00 | > 6.00 | – | – | Cc1cncc(C(=O)Nc2cccc([C@H](C)Nc3cncc(Cl)n3)c2)c1 [Compound 42, N-(3-{(1S)-1-[(6-chloropyrazin-2-yl)amino]ethyl}phenyl)-5-methylnicotinamide] | – |
| – | > 7.00 | < 5.00 | > 6.00 | – | – | COc1cc(-c2cncc(NC(C)c3cccc(NC(=O)c4cccnc4)c3)n2)ccc1O (stereo not drawn) [Compound 1] | – |
| > 7.00 | > 6.00 | > 5.00 | > 6.00 | – | – | Cc1cccc(C(=O)Nc2cccc([C@H](C)Nc3cncc(-c4ccc(O)nc4)n3)c2)c1 [Compound 90] | – |
| > 7.00 | > 7.00 | > 5.00 | > 7.00 | – | – | COc1cc(-c2cncc(N[C@@H](C)c3cccc(NC(=O)c4cccnc4)c3)n2)ccc1N [Compound 7] | – |
| – | > 6.00 | < 5.00 | > 6.00 | – | – | Cc1ccc(C(=O)Nc2cccc([C@H](C)Nc3cncc(Cl)n3)c2)cc1 [Compound 93] | – |
| > 7.00 | > 7.00 | > 5.00 | – | – | – | COc1cc(-c2cncc(N[C@@H](C)c3cccc(NC(=O)c4ccc(C)nc4)c3)n2)ccc1N [Compound 38] | – |

The remaining lines, values behind:

| SMILES | pIC50 [1] | pIC50 [2] | pIC50 (FLT-3 tyrosine kinase) | pIC50 (PDGFR β tyrosine kinase) | pIC50 (KDR protein kinase) | pIC50 (Baf3-WT) | pIC50 (mNFS-60) |
| --- | --- | --- | --- | --- | --- | --- | --- |
| Cc1cccc(C(=O)Nc2cccc([C@H](C)Nc3cncc(N4CCC(O)CC4)n3)c2)c1 [Compound 95] | > 7.00 | > 6.00 | < 5.00 | > 6.00 | – | – | – |
| Cc1cccc(C(=O)Nc2cccc([C@H](C)Nc3cncc(-c4ccc(N5CCOCC5)cc4)n3)c2)c1 [Compound 81] | > 7.00 | > 7.00 | < 5.00 | > 6.00 | – | – | – |
| Cc1cncc(C(=O)Nc2cccc([C@H](C)Nc3cncc(-c4ccc(NCCN5CCOCC5)nc4)n3)c2)c1 [Compound 80] | > 7.00 | > 7.00 | < 5.00 | > 6.00 | – | – | – |
| Cc1ccnc(C(=O)Nc2cccc([C@H](C)Nc3cncc(Cl)n3)c2)c1 [Compound 82] | > 7.00 | > 6.00 | < 5.00 | > 6.00 | – | – | – |
| COc1cc(-c2cncc(N[C@@H](C)c3cccc(NC(=O)c4cncc(C)c4)c3)n2)ccc1O [Compound 28] | > 7.00 | > 7.00 | > 5.00 | > 7.00 | – | – | – |
| Cc1cncc(C(=O)Nc2cccc([C@H](C)Nc3cncc(-c4ccc(N5CCOCC5)nc4)n3)c2)c1 [Compound 79] | > 7.00 | > 7.00 | < 5.00 | > 6.00 | – | – | – |
| C[C@H](Nc1cncc(Cl)n1)c1cccc(NC(=O)c2ccc(CN3CCN(C)CC3)cc2)c1 [Compound 91] | > 7.00 | > 6.00 | < 5.00 | > 6.00 | – | – | – |
| Cc1cc(C(=O)Nc2cccc([C@H](C)Nc3cncc(Cl)n3)c2)ccn1 [Compound 83] | – | > 6.00 | > 6.00 | > 6.00 | – | – | – |
